pEC50, pIC50: −log10 of the molar value.
Assays:
[1] = target: Human immunodeficiency virus type 1 integrase (Human immunodeficiency virus 1, UniProt Q7ZJM1, R263K); assay: Inhibition of HIV-1 integrase DTG-resistant R263K mutant
[2] = test system: Cytomegalovirus; assay: Antiviral activity against Human Cytomegalovirus; conditions: Human betaherpesvirus 5
[3] = Permeability of the compound at pH 7.4 by PAMPA method; assay type: ADME; conditions: for Papp: read-out: permeability
[4] = test system: Cytomegalovirus; assay: Antiviral activity against Human Cytomegalovirus assessed as inhibition of viral growth at 10 uM relative to control; assay type: functional; conditions: Human betaherpesvirus 5
[5] = target: T1, Tripartite terminase subunit 3 (Human betaherpesvirus 5, UniProt P16732); assay: Inhibition of Human Cytomegalovirus C-terminal UL89 […] using (5-tcggtgcgggcctcttcgctattacgccagctggcgaaagggggatgtgctgcaaggcga as a substrate preincubated for 15 mins followed by substrate addition and measured after 30 mins by plate reader endonuclease assay
T1 sequence (P16732 whole entry): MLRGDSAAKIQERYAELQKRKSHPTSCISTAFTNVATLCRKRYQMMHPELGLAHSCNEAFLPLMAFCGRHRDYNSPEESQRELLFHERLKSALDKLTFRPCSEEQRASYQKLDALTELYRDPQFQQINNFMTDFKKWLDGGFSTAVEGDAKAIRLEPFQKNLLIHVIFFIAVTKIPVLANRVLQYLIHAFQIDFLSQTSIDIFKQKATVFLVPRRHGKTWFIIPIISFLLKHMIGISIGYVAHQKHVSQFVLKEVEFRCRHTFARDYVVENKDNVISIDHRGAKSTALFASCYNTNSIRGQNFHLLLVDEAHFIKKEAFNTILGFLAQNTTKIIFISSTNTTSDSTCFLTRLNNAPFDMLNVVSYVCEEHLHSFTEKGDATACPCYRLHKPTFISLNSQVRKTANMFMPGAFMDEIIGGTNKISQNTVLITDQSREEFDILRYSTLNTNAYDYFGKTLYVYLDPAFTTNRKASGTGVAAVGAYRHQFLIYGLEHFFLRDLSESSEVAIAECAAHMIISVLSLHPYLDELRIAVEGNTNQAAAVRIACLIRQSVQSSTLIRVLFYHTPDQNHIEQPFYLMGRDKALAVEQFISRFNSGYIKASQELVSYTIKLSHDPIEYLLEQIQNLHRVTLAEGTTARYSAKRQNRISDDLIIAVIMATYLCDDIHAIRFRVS

[6] = target: T1, Tripartite terminase subunit 3; assay: Inhibition of human Cytomegalovirus C-terminal UL89
[7] = target: T2, Tripartite terminase subunit 3 (Human betaherpesvirus 5) (UniProt P16732); assay: Inhibition of Human Cytomegalovirus C-terminal UL89 […] using (5-tcggtgcgggcctcttcgctattacgccagctggcgaaagggggatgtgctgcaaggcga as a substrate preincubated for 15 mins followed by substrate addition at 20 uM and measured after 30 mins by plate reader endonuclease assay relative to control; conditions: time 45.0 min
T2 sequence (whole entry): T1 sequence (P16732 whole entry)

[8] = target: Human immunodeficiency virus type 1 integrase (Human immunodeficiency virus 1, UniProt Q7ZJM1, G140S/Q148K)
Human immunodeficiency virus type 1 integrase (Human immunodeficiency virus 1, UniProt Q7ZJM1, G140S/Q148K), sequence (Q7ZJM1 entry or part of it G140S/Q148K): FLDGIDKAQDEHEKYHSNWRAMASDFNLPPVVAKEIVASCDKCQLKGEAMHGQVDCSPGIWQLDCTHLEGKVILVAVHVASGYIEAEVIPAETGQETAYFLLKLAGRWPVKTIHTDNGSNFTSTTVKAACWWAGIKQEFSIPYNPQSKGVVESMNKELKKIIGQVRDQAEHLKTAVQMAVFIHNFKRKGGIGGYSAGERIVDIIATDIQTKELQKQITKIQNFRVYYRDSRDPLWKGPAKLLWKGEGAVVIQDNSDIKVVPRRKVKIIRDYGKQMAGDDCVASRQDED

[9] = Cytotoxicity against human HFF cells assessed as reduction in cell viability incubated for 72 hrs by MTT assay; assay type: toxicity, cell-based
[10] = test system: HFF; assay: Cytotoxicity against human HFF cells assessed as reduction in cell viability; assay type: functional
[11] = Selectivity index, ratio of CC50 for human HFF cells to EC50 for Human cytomegalovirus; assay type: toxicity; conditions: read-out: Ratio CC50/EC50
[12] = Cytotoxicity against human HFF-1 cells assessed as induction of cell death incubated for 24 hrs by MTT assay; assay type: toxicity, cell-based
[13] = target: Hepatitis C virus NS5B RNA-dependent RNA polymerase (Hepatitis C virus, UniProt Q8JXU8); assay: Inhibition of Hepatitis C virus NS5B polymerase; design: species or system Hepacivirus hominis
Hepatitis C virus NS5B RNA-dependent RNA polymerase, sequence (Q8JXU8 whole entry): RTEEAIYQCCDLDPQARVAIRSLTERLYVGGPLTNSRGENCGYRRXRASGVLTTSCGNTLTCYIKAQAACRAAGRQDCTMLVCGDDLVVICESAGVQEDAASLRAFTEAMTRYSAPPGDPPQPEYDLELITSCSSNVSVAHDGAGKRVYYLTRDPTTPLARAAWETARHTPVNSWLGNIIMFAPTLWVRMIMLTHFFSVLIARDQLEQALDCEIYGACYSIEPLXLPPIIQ

[14] = target: T3, Human immunodeficiency virus type 1 reverse transcriptase (Human immunodeficiency virus 1, UniProt Q72547); assay: Inhibition of HIV-1 reverse transcriptase associated RNA-dependent DNA polymerase
[15] = test system: Human immunodeficiency virus 1; assay: Antiviral activity against HIV-1 assessed as viral growth inhibition; assay type: functional, organism-based
[16] = target: T3, Human immunodeficiency virus type 1 reverse transcriptase; assay: Inhibition of HIV-1 RNase H polymerase activity
[17] = test system: Human immunodeficiency virus 1; assay: Antiviral activity against HIV-1 harboring integrase L74M mutant; assay type: functional, organism-based
[18] = target: T3, Human immunodeficiency virus type 1 reverse transcriptase; assay: Inhibition of HIV-1 reverse transcriptase
[19] = target: Integrase (Human immunodeficiency virus 1, UniProt Q76353, Q148K); assay: Inhibition of HIV-1 integrase Q148K mutant
Integrase, sequence (Q76353 entry or part of it Q148K): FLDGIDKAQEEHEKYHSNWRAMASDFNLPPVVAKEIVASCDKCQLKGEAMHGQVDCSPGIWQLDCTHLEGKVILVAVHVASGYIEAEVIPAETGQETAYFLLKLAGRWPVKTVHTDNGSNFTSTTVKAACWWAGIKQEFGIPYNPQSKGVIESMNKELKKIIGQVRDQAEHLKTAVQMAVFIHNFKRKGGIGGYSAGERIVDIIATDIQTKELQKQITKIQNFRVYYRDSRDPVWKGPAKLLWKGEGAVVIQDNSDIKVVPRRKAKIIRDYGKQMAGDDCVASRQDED

Human immunodeficiency virus type 1 integrase (Human immunodeficiency virus 1, UniProt Q7ZJM1, R263K), sequence (Q7ZJM1 entry or part of it R263K): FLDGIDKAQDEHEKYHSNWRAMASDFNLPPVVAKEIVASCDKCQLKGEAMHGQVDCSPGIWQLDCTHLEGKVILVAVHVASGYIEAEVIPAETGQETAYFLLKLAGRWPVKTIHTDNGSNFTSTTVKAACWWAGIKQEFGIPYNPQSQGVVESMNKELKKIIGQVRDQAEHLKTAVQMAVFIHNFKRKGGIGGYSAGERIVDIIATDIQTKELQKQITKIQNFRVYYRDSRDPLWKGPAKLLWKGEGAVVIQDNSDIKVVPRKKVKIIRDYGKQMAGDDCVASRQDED

Row | SMILES | pEC50 [2] | inhibition at 10 µM [4] | pIC50 [5] | also measured
1 | O=C(NCc1ccc(F)cc1)c1ncc2cccnc2c1O |  |  |  | pIC50 [1]: 7.48
2 | O=c1[nH]c2cc(-c3ccccc3)ccc2c(=O)n1O | 4.89 | 91% | 5.19 | Papp [3]: 2 ×10⁻⁶ cm/s
3 | COc1ccc(-c2ccc(Nc3cc(=O)n(O)c(=O)n3C)cc2)cc1 |  |  | < 4.70 | 
4 | CN(Cc1ccc(F)cc1)C(=O)CC(=O)C(=O)O |  |  |  | pIC50 [6]: 4.30
5 | O=c1[nH]c2sc3c(c2c(=O)n1O)CCCC3 |  | -3% | 6.10 | permeability [3]: 1.1 10^-6 cm/s
6 | O=C(c1cc(Cc2ccccc2)cc(CN2CCCS2(=O)=O)c1)c1ncc2cccnc2c1O |  |  |  | pIC50 [1]: 8.00
7 | COc1cccc(-c2ccc(Nc3cc(=O)n(O)c(=O)[nH]3)cc2)c1 | < 4.70 |  | 5.92 | 
8 | O=c1[nH]c2sc3c(c2c(=O)n1O)CCC3 |  | 19% | 6.32 | Papp [3]: 0.4 ×10⁻⁶ cm/s
9 | O=c1cc(Nc2ccc(-c3ccc(Cl)cc3)cc2)[nH]c(=O)n1O | < 4.70 |  | 5.03 | 
10 | CCn1cc(O)c(=O)c(C(=O)O)c1 |  | 14% | < 4.60 | 
11 | Cc1ccc(CNC(=O)c2nc(Cl)c3cccnc3c2O)cc1 |  |  | 5.74 | 
12 | O=c1[nH]c2sc(-c3ccc(Cl)cc3)cc2c(=O)n1O | 5.12 | 33% | 6.52 | Papp [3]: 0.5 ×10⁻⁶ cm/s
13 | COc1cn(Cc2ccc(F)cc2)cc(C(=O)NCc2ccc(F)cc2F)c1=O | < 4.30 |  |  | inhibition [7]: 6%
14 | CCOC(=O)c1cn(Cc2ccc(F)cc2)cc(O)c1=O |  | 40% |  | 
15 | O=c1[nH]c2sc(-c3ccccc3)cc2c(=O)n1O |  | 2.7% | 5.80 | Papp [3]: 0.5 ×10⁻⁶ cm/s
16 | O=C(NCc1ccccc1)c1nc(-c2cccs2)nc(O)c1O |  |  |  | pIC50 [8]: 5.59
17 | O=C(NCc1ccc(F)cc1F)c1cn(Cc2ccc(F)cc2)cc(O)c1=O | 6.05 |  |  | inhibition [7]: 14%
18 | O=c1[nH]c2sccc2c(=O)n1O |  | -0.95% | 6.40 | Papp [3]: 0.1 ×10⁻⁶ cm/s
19 | O=c1[nH]c2c3c(sc2c(=O)n1O)CCC3 | 6.66 | -32% | 6.66 | Papp [3]: 0.3 ×10⁻⁶ cm/s
20 | O=C(O)c1c[nH]cc(O)c1=O |  | 13% | 4.85 | 
21 | O=C(O)C(=O)CC(=O)c1ccc(N2CCCCC2)cc1 |  |  |  | pIC50 [6]: 5.35
22 | Cc1ccc(-c2ccc(Nc3cc(=O)n(O)c(=O)n3C)cc2)cc1 | 5.92 |  | 5.66 | 
23 | COc1ccc(-c2cccc(Nc3cc(=O)n(O)c(=O)[nH]3)c2)cc1 | < 4.70 |  | 4.85 | 
24 | CCc1ccccc1Sc1cc(=O)n(O)c(=O)n1C |  |  |  | CC50 at 72 h [9]: 20000 nM
25 | O=c1cc(Nc2cccc(-c3ccc(Cl)cc3)c2)[nH]c(=O)n1O | < 4.70 |  | < 4.70 | 
26 | O=C(O)c1cn(Cc2ccc(F)cc2)cc(O)c1=O | 5.00 | 39% |  | 

Row | SMILES | pEC50 [2] | inhibition at 10 µM [4] | pIC50 [5] | also measured
27 | Cn1c(Nc2ccc(-c3ccccc3)cc2)cc(=O)n(O)c1=O | < 4.70 |  | < 4.70 | 
28 | O=c1[nH]c2sc3c(c2c(=O)n1O)CCNC3 |  | 26% | 6.17 | Papp [3]: 0.1 ×10⁻⁶ cm/s
29 | Cn1c(Nc2ccc(-c3cccc(C#N)c3)cc2)cc(=O)n(O)c1=O | 5.21 |  | 6.13 | 
30 | O=C(O)c1cn(Cc2ccc(F)c(Cl)c2)cc(O)c1=O | 5.40 | 53% | 5.22 | CC50 [10]: > 200000 nM; selectivity ratio [11]: > 116
31 | O=c1[nH]c2c3c(sc2c(=O)n1O)CCCC3 |  | -4.5% | 6.03 | Papp [3]: 1 ×10⁻⁶ cm/s
32 | O=C(O)c1cn(C2CC2)cc(O)c1=O |  | 2% | < 4.60 | 
33 | O=c1[nH]c2cc(-c3ccccc3)sc2c(=O)n1O | 4.89 | 59% | 6.22 | CC50 at 24 h [12]: > 50000 nM; permeability [3]: 1.4 10^-6 cm/s
34 | Cc1ccc(CNC(=O)c2nc(-c3ccccc3)c3cccnc3c2O)cc1 |  |  | 5.55 | 
35 | O=C(O)C(=O)CC(=O)c1cccc(Cc2ccccc2)c1 |  |  |  | pIC50 [1]: 8.00
36 | O=C(O)c1cn(Cc2ccccc2)cc(O)c1=O |  | 38% | < 4.60 | 
37 | O=c1[nH]c2sc3c(c2c(=O)n1O)CCN(Cc1ccccc1)C3 | 4.82 | 59% | 5.96 | CC50 at 24 h [12]: > 50000 nM; Papp [3]: 0.2 ×10⁻⁶ cm/s
38 | O=c1[nH]c2ccsc2c(=O)n1O |  | -11% | 7.00 | Papp [3]: 0.1 ×10⁻⁶ cm/s
39 | NC(=O)c1cn(Cc2ccc(F)cc2)cc(O)c1=O |  | 50% | < 4.30 | 
40 | O=C(O)c1nc(-c2cccs2)nc(O)c1O |  |  |  | pIC50 [13]: 5.59
41 | O=C1c2ccccc2C(c2ccccc2F)C(=O)N1O (centres undefined) | 5.21 | 68% | 5.85 | Papp [3]: 3 ×10⁻⁶ cm/s
42 | Cn1c(Nc2ccc(-c3ccc(C(F)(F)F)cc3)cc2)cc(=O)n(O)c1=O |  |  | < 4.70 | 
43 | O=C(NCc1ccc(F)cc1F)c1cn(Cc2ccc(F)cc2)ccc1=O | 5.18 |  |  | inhibition [7]: 5%
44 | O=C(NCCc1ccc(F)cc1F)c1cn(Cc2ccc(F)cc2)cc(O)c1=O | 6.40 |  |  | inhibition [7]: 10%; CC50 [10]: > 50000 nM; selectivity ratio [11]: > 40
45 | CCOC(=O)c1cc(=O)c(O)c(C(=O)O)o1 |  |  |  | pIC50 [13]: 5.65
46 | O=c1c2cc(Cc3ccccc3)ccc2oc2ccc(O)c(O)c12 |  |  |  | pIC50 [1]: 6.22
47 | O=c1cc(Nc2ccc(-c3cccc(O)c3)cc2)[nH]c(=O)n1O | < 4.70 |  | 5.54 | 
48 | O=c1cc(Nc2ccc(-c3ccc(O)cc3)cc2)[nH]c(=O)n1O | < 4.70 |  | 5.96 | 
49 | CC(C)c1cn(COCc2ccccc2)c(=O)n(O)c1=O |  |  |  | pIC50 [14]: 5.27; CC50 at 72 h [9]: > 20000 nM; pEC50 [15]: 8.10; pIC50 [16]: 5.60
50 | O=C(O)c1cn(-c2ccccc2)cc(O)c1=O |  | 8% | < 4.60 | 
51 | COc1cccc(OC)c1-c1cccc(Nc2cc(=O)n(O)c(=O)[nH]2)c1 | 4.82 |  | 4.85 | 
52 | CC(C)c1cn(COCc2ccccc2)c(=O)[nH]c1=O |  |  |  | pEC50 [17]: 7.89; pIC50 [18]: 7.40; CC50 [10]: > 20000 nM; pIC50 [19]: < 3.48
